biological target: T1, Ectonucleotide pyrophosphatase/phosphodiesterase family member 1 (Mus musculus, UniProt P06802); test: ENPP1 Enzyme Activity Assay
T1 sequence (P06802 whole entry): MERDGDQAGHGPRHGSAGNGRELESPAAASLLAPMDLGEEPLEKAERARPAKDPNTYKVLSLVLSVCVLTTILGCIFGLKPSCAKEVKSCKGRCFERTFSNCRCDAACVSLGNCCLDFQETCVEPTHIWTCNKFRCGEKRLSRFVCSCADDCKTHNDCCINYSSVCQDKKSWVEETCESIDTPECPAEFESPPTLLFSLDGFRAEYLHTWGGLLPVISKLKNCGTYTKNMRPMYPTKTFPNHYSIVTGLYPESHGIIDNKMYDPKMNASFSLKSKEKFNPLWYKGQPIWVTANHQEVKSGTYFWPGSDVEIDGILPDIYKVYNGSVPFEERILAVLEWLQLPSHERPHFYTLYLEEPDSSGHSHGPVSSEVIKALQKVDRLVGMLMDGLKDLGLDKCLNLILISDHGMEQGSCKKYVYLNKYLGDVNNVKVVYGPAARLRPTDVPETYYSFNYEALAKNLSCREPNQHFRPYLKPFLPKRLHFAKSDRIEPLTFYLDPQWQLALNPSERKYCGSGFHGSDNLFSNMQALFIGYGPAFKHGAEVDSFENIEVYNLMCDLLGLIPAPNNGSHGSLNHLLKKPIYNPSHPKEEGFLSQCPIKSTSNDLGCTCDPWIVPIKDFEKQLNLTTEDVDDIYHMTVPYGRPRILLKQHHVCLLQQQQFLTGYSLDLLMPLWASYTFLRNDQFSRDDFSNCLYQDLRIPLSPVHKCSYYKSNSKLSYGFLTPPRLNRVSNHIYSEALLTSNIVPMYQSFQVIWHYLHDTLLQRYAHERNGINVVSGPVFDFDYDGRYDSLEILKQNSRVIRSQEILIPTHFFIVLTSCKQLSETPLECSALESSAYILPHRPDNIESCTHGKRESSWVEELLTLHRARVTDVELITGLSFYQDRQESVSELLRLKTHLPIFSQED
Method: The AMP degradation product was converted to ATP, which was detected using luciferase. To achieve this, an enzyme mixture of polyphosphate:AMP phosphotransferase (PAP) and myokinase was prepared according to Goueli et al. in EP2771480. Briefly, PAP was diluted to 2 mg/mL in buffer containing 50 mM Tris pH 7.5, 0.1% NP-40. Myokinase was diluted to 2 KU/mL in buffer containing 3.2 mM ammonium sulfate pH 6.0, 1 mM EDTA, and 4 mM polyphosphate. The heat-inactivated ENPP1 reaction was incubated with PAP (0.01 μg/μL) and myokinase (0.0075 U/μL) in buffer containing 40 mM Tris pH 7.5, 0.05 mg/mL Prionex, 5 mM MgCl2, 20 μM polyphosphate, and 0.15 g/L phenol red (for ease of pipetting) for 3 hours (total reaction volume=20 μL). CellTiterGlo (20 uL) was added to the reaction according to manufacturer's protocol and luminescence was measured.

Compound	IC50 [nM]
COc1cc2ncc(F)c(N3CCC(CCP(=O)(O)O)CC3)c2cc1OC [US20250059218, Compound 208]	> 100
COc1ccc2c(N3CCC(CCB(O)O)CC3)c(C#N)cnc2c1 [US20250059218, Compound 217]	> 100
COc1cc2ncc(Cl)c(N3CCC(CCP(=O)(O)O)CC3)c2cc1OC [US20250059218, Compound 207]	> 100
COc1cc2ncc(N)c(N3CCC(CCP(=O)(O)O)CC3)c2cc1OC [US20250059218, Compound 205]	< 50
COc1ccc2c(N3CCC(CCCP(=O)(O)O)CC3)c(C#N)cnc2c1 [US20250059218, Compound 209]	< 50
COc1cccc2c(N3CCC(COP(O)(O)=S)CC3)c(C#N)cnc12 [US20250059218, Compound 50]	> 100
COc1cc(OC)c2ncc(C#N)c(N3CCC(CCP(=O)(O)O)CC3)c2c1 [US20250059218, Compound 46]	> 100
COc1ccc2c(N3CCC(COP(O)(O)=S)CC3)c(C#N)cnc2c1 [US20250059218, Compound 48]	> 100
COc1ccc2c(N3CCC(CCOP(O)(O)=S)CC3)c(C#N)cnc2c1 [US20250059218, Compound 215]	> 100
COc1cccc2c(N3CCC(CCB(O)O)CC3)c(C#N)cnc12 [US20250059218, Compound 216]	> 100
COc1ccc2c(N3CCC(CCP(=O)(O)O)CC3)c(C#N)cnc2c1 [US20250059218, Compound 43]	< 50
COc1cc2ncc(C#N)c(N3CCC(CCP(=O)(O)O)CC3)c2cc1OC [US20250059218, Compound 42]	< 50
COc1cc2nccc(N3CCC(CCP(=O)(O)O)CC3)c2cc1OC [US20250059218, Compound 201]	> 100

Further lines, results first:

IC50 [nM]	Compound
> 100	COc1cc2ncc3ncn(Cc4ccc(CP(=O)(O)O)cc4)c3c2cc1OC [US20250059218, Compound 218]
< 50	COc1cc2ncc(C#N)c(NCc3ccc(P(=O)(O)O)cc3)c2cc1OC [US20250059218, Compound 203]
> 100	COc1cccc2c(NCc3ccc(C(=O)NO)cc3)ncnc12 [US20250059218, Compound 104]
> 100	COc1ccc2c(NCc3ccc(C(=O)NO)cc3)c(C#N)cnc2c1 [US20250059218, Compound 219]
> 100	COc1ccc2c(NCc3ccc(B(O)O)cc3)ncnc2c1 [US20250059218, Compound 103]
> 100	COc1cccc2c(NCc3ccc(B(O)O)cc3)c(C#N)cnc12 [US20250059218, Compound 214]
< 50	COc1cccc2c(NCc3ccc(P(=O)(O)O)cc3)nc(/C=C/c3cccnc3)nc12 [US20250059218, Compound 53]
< 50	COc1cccc2c(NCc3ccc(P(=O)(O)O)cc3)ncnc12 [US20250059218, Compound 36]
< 50	COc1cccc2c(NCc3ccc(P(=O)(O)O)cc3)c(C#N)cnc12 [US20250059218, Compound 52]
< 50	COc1cccc2c(NCc3ccc(B(O)O)cc3)ncnc12 [US20250059218, Compound 102]
> 100	COc1cc2ncnc(NCc3ccc(C(=O)NO)cc3)c2cc1OC [US20250059218, Compound 101]
< 50	COc1cc2ncnc(NCc3ccc(CP(=O)(O)O)cc3)c2cc1OC [US20250059218, Compound 5]
< 50	COc1cccc2c(N3CCC(CCP(=O)(O)O)CC3)c(C#N)cnc12 [US20250059218, Compound 45]
< 50	COc1cccc2c(N3CCC(CCCP(=O)(O)O)CC3)c(C#N)cnc12 [US20250059218, Compound 210]
< 50	COc1cc2ncnc(NCc3ccc(P(=O)(O)O)cc3)c2cc1OC [US20250059218, Compound 4]
> 100	COc1cccc2c(NCc3ccc(C(=O)NO)cc3)c(C#N)cnc12 [US20250059218, Compound 220]
< 50	COc1cccc2c(NCc3ccc(CP(=O)(O)O)cc3)c(C#N)cnc12 [US20250059218, Compound 211]
> 100	COc1cc2ncnc(Nc3ccc(P(=O)(O)O)cc3)c2cc1OC [US20250059218, Compound 2]
< 50	COc1ccc2c(NCc3ccc(P(=O)(O)O)cc3)c(C#N)cnc2c1 [US20250059218, Compound 204]
> 100	COc1ccc2c(NCc3ccc(B(O)O)cc3)c(C#N)cnc2c1 [US20250059218, Compound 213]
